# Measurements as given in PMC5030359, “Cathelicidin Antimicrobial Peptides with Reduced Activation of Toll-Like Receptor Signaling Have Potent Bactericidal Activity against Colistin-Resistant Bacteria” (mBio, 2016).
# Peptide text beside a SMILES is read from it.
# Columns and labels:
# E. cloacae 4080 = experiment: Bacterial killing, colony formation (CFU); assay type: cell-based, Enterobacter cloacae
# Experimental: The number of CFU of E. cloacae 4080 were quantified as a function of time of incubation with a 2 µM concentration of the individual peptides. In the reactions with kanamycin (Kan), 25 µg/ml of kanamycin sulfate was used. […] The initial inoculum was 10^6 CFU in LB.
# E. coli = assay type: cell-based, Escherichia coli; conditions: 2 µM peptide
# Experimental: A total of 1 × 10^5 CFU of the bacteria were incubated for 30 min with the concentration of peptide or colistin shown. Approximately 500 CFU was then added as a droplet onto nonselective media for 18 h. […] The number shown is the median value of three or four independent assays. The number in parentheses is the standard deviation of all of the assays. […] The numbers are the means of three independent assays, and those in parentheses are the range for 1 standard deviation.
# Incubation time: 0 min 5 min 30 min
# V. angustum = experiment: Bacterial killing, colony formation (CFU); assay type: cell-based; conditions: 2 µM peptide, 30 min incubation
# V. fischeri = experiment: Bacterial killing, colony formation (CFU); assay type: cell-based; conditions: 2 µM peptide, 30 min incubation
# K. pneumoniae = experiment: Bacterial killing, colony formation (CFU); assay type: cell-based, Klebsiella pneumoniae
# Experimental: A total of 1 × 10^5 CFU of the bacteria were incubated for 30 min with the concentration of peptide or colistin shown. Approximately 500 CFU was then added as a droplet onto nonselective media for 18 h. […] The number shown is the median value of three or four independent assays. The number in parentheses is the standard deviation of all of the assays. […] (C) Quantitative analysis of the viable colonies formed by colistin-resistant bacteria. […] The numbers are the means of three independent assays, and those in parentheses are the range for 1 standard deviation.
# V. cholerae = assay type: cell-based, Vibrio cholerae; conditions: 5 min with 100 µM ampicillin or 4 µM SMAP-29D, relative to PBS control cells
# Experimental: (§1) The number of CFU of E. cloacae 4080 were quantified as a function of time of incubation with a 2 µM concentration of the individual peptides. In the reactions with kanamycin (Kan), 25 µg/ml of kanamycin sulfate was used. […] The initial inoculum was 10^6 CFU in LB. […] (D to F) Fluorescence microscopy of V. vulnificus cells. […] An enlarged image of a single cell is highlighted in the boxed region. White arrows denote bulges extending from the bacterial membrane. […] Bacterial DNA is stained with DAPI (blue). […] The fate of cellular cytoplasmic contents was tracked following expression of a FliM-tdTomato fusion protein (red).
# V. vulnificus = assay type: cell-based, Vibrio vulnificus; conditions: 5 min with 100 µM ampicillin or 4 µM SMAP-29D, relative to PBS control cells
# Experimental: as §1
# [1] = 2 µM peptide, 30 min incubation
# [2] = broth microdilution, CAMHB, at least three independent assays
# Experimental for 19 Gram-negative strains: (A) Sequences of the cathelicidins, the numbers of bacterial strains killed, and hRBC lysis by the cathelicidins. […] The bacterial species tested are Klebsiella pneumoniae (K. p.), Serratia marcescens (S. m.), Enterobacter cloacae (E. cl.), Escherichia coli (E. c.), and Pseudomonas aeruginosa (P. a.). MICs were determined by the microdilution assay. […] The results are the median values of at least three independent assays.
# We tested a panel of cathelicidins for inhibiting growth of 19 Gram-negative strains from the family Enterobacteriaceae and the nonfermentative bacteria. The species tested were Enterobacter cloacae ([2]), Escherichia coli ([5]), Klebsiella pneumoniae ([4]), Pseudomonas aeruginosa ([4]), and Serratia marcescens ([4]). All of the strains selected have been characterized for their antibiotic resistance profiles.
# (§2) Antimicrobial activity was determined using the broth microdilution method based on the guidelines of the Clinical and Laboratory Standards Institute (CLSI) ([39]), using cation-adjusted Mueller-Hinton broth (CAMHB) as the testing medium. Reference Gram-positive and Gram-negative bacteria were tested, including both enteric and Pseudomonas aeruginosa strains. Each MIC was determined in at least three independent assays.
# Experimental for E. faecalis: as §2
# Experimental for Enterobacter cloacae: (§3) The bacterial species tested are Klebsiella pneumoniae (K. p.), Serratia marcescens (S. m.), Enterobacter cloacae (E. cl.), Escherichia coli (E. c.), and Pseudomonas aeruginosa (P. a.). MICs were determined by the microdilution assay. […] The results are the median values of at least three independent assays.
# as §2
# Experimental for Escherichia coli: as §3, §2
# Experimental for Klebsiella pneumoniae: as §3, §2
# Experimental for Pseudomonas aeruginosa: as §3, §2
# Experimental for S. aureus: as §2
# Experimental for Serratia marcescens: as §3, §2
smiles,measurement,setting,value
CC[C@H](C)[C@H](NC(=O)[C@@H](NC(=O)[C@@H]1CCCN1C(=O)[C@H](CO)NC(=O)[C@H](CC(C)C)NC(=O)[C@H](CCCCN)NC(=O)[C@H](CCCCN)NC(=O)[C@H](Cc1ccccc1)NC(=O)[C@H](CC(C)C)NC(=O)[C@H](CCCCN)NC(=O)[C@H](CCCCN)NC(=O)[C@H](CC(C)C)NC(=O)[C@H](CCCCN)NC(=O)[C@H](CCCCN)NC(=O)[C@H](CCCNC(=N)N)NC(=O)[C@H](CC(C)C)NC(=O)[C@H](CCCNC(=N)N)NC(=O)[C@H](CCCCN)NC(=O)[C@H](Cc1ccccc1)NC(=O)[C@H](CCCNC(=N)N)NC(=O)CN)C(C)C)C(=O)N1CCC[C@H]1C(=O)N[C@@H](CC(C)C)C(=O)N[C@@H](CC(C)C)C(=O)N[C@@H](Cc1c[nH]cn1)C(=O)N[C@@H](CC(C)C)C(=O)NCC(=O)O [BMAP-27B] (H-GRFKRLRKKLKKLFKKLSPVIPLLHLG-OH),"Fold redu. from To, En. cloacae 4080, 5 min",E. cloacae 4080,2400
same,"Fold redu. from To, En. cloacae 4080, 30 min",E. cloacae 4080,"> 19,200"
same,"CFU/ml (SD) En. cloacae 4080, 5 min","E. cloacae 4080; 2 µM peptide (sub-heading; title says 1 µM), 5 min incubation",< 200 CFU/ml
same,"reduction in CFU, 120 min","E. cloacae 4080; 2 µM peptide, 120-min incubation, E. cloacae",> 4 log10 unit
same,"CFU/ml (SD) En. cloacae 4080, 30 min",E. cloacae 4080; [1],< 25 CFU/ml
same,# strains inhibited at 16 µg/ml peptide K. p.,Klebsiella pneumoniae,4/4
same,# strains inhibited at 16 µg/ml peptide E. cl.,Enterobacter cloacae,2/2
same,MIC E. cloacae 4092,Enterobacter cloacae; [2],4 µg/mL
same,No. of strains inhibited at 16 µg/ml/total no. of strains,19 Gram-negative strains,19/19
same,# strains inhibited at 16 µg/ml peptide E. c.,Escherichia coli,6/6
same,MIC E. coli MC4100,Escherichia coli; [2],4 µg/mL
same,MIC S. aureus 25923,S. aureus,32 µg/mL
same,MIC S. aureus 29213,S. aureus,32 µg/mL
same,MIC E. faecalis 29212,E. faecalis,>32 µg/mL
same,MIC E. faecalis 51299,E. faecalis,>32 µg/mL
same,"CFU/ml (SD) E. coli IU-342, 5 min",E. coli; 5 min incubation,< 200 CFU/ml
same,"Fold redu. from To, E. coli IU-342, 5 min",E. coli; 5 min incubation,850 fold
same,"CFU/ml (SD) E. coli IU-342, 30 min",E. coli; 30 min incubation,< 25 CFU/ml
same,"Fold redu. from To, E. coli IU-342, 30 min",E. coli; 30 min incubation,"> 6,800 fold"
same,# strains inhibited at 16 µg/ml peptide S. m.,Serratia marcescens,3/3
same,"CFU/ml (SD) V. angustum, 30 min",V. angustum,27 CFU/ml
same,"Fold redu. from To, V. angustum, 30 min",V. angustum,"> 88,460 fold"
same,# strains inhibited at 16 µg/ml peptide P. a.,Pseudomonas aeruginosa,4/4
same,MIC P. aeruginosa 4083,Pseudomonas aeruginosa,4 µg/mL
same,MIC P. aeruginosa PAO1,Pseudomonas aeruginosa,4 µg/mL
same,MIC P. aeruginosa PAO1 ΔOprD,Pseudomonas aeruginosa; [2],4 µg/mL
same,"CFU/ml (SD) V. fischeri, 30 min",V. fischeri,< 20 CFU/ml
same,"Fold redu. from To, V. fischeri, 30 min",V. fischeri,"> 48,000 fold"
same,"CFU/ml (SD) K. pneumonia 8893, 5 min","K. pneumoniae; 2 µM peptide, 5 min incubation",< 200 CFU/ml
same,"Fold redu. from To, K. pneumonia 8893, 5 min","K. pneumoniae; 2 µM peptide, 5 min incubation",1050 fold
same,"Fold redu. from To, K. pneumonia C-2, 5 min","K. pneumoniae; 2 µM peptide, 5 min incubation",25 fold
same,"CFU/ml (SD) K. pneumonia 8893, 30 min",K. pneumoniae; [1],< 25 CFU/ml
same,"CFU/ml (SD) K. pneumonia C-2, 30 min",K. pneumoniae; [1],50 CFU/ml
same,"Fold redu. from To, K. pneumonia 8893, 30 min",K. pneumoniae; [1],"> 8,400 fold"
same,"Fold redu. from To, K. pneumonia C-2, 30 min",K. pneumoniae; [1],"> 13,000 fold"
same,"reduction in CFU, colistin-resistant K. pneumoniae","K. pneumoniae; 2 µM, Fig. 5C (K. pneumoniae 59) and data not shown",> 2 log10 unit
CC1(C)S[C@@H]2[C@H](NC(=O)[C@H](N)c3ccccc3)C(=O)N2[C@H]1C(=O)O [ampicillin],"reduction in CFU, V. cholerae",V. cholerae,less than 1 log10 unit
same,"reduction in CFU, V. vulnificus",V. vulnificus,less than 1 log10 unit
